Source: the NIST ThermoML archive (doi:10.1016/j.jct.2014.03.001)

Assay: mn = molality of the nth substance listed, in mol/kg
Conditions: 84.51 kPa, Liquid; for speed of sound: Frequency=3 MHz, Sing-around technique in a fixed-path interferometer; for mass density: Vibrating tube method

CCCCCCCCCCCCn1cc[n+](C)c1.[Br-] [1-dodecyl-3-methylimidazolium bromide] + O
Conditions | mass density [kg/m3] | speed of sound [m/s]
288.15 K, m1 = 0.00233 | 999.188 | 1467.3
288.15 K, m1 = 0.00278 | 999.209 | 1467.4
288.15 K, m1 = 0.00301 | 999.216 | 1467.5
288.15 K, m1 = 0.00467 | 999.282 | 1467.7
288.15 K, m1 = 0.00501 | 999.296 | 1467.9
288.15 K, m1 = 0.00665 | 999.36 | 1468.4
288.15 K, m1 = 0.00889 | 999.451 | 1469
288.15 K, m1 = 0.00906 | 999.458 | 1469
288.15 K, m1 = 0.01229 | 999.569 | 1469.4
288.15 K, m1 = 0.01511 | 999.659 | 1469.4
288.15 K, m1 = 0.01804 | 999.736 | 1469.5
288.15 K, m1 = 0.02431 | 999.927 | 1469.6
288.15 K, m1 = 0.03042 | 1000.12 | 1469.7
288.15 K, m1 = 0.04595 | 1000.6 | 1470
288.15 K, m1 = 0.06124 | 1001.06 | 1470.2
288.15 K, m1 = 0.07667 | 1001.51 | 1470.5
288.15 K, m1 = 0.098 | 1002.15 | 1471
288.15 K, m1 = 0.1095 | 1002.5 | 1471.1
293.15 K, m1 = 0.00233 | 998.288 | 1483.3
293.15 K, m1 = 0.00278 | 998.306 | 1483.3
293.15 K, m1 = 0.00301 | 998.314 | 1483.4
293.15 K, m1 = 0.00467 | 998.376 | 1483.7
293.15 K, m1 = 0.00501 | 998.39 | 1483.9
293.15 K, m1 = 0.00665 | 998.451 | 1484.2
293.15 K, m1 = 0.00889 | 998.538 | 1484.8
293.15 K, m1 = 0.00906 | 998.544 | 1484.8
293.15 K, m1 = 0.01229 | 998.652 | 1485.1
293.15 K, m1 = 0.01511 | 998.738 | 1485.1
293.15 K, m1 = 0.01804 | 998.815 | 1485.2
293.15 K, m1 = 0.02431 | 998.999 | 1485.2
293.15 K, m1 = 0.03042 | 999.185 | 1485.3
293.15 K, m1 = 0.04595 | 999.641 | 1485.4
293.15 K, m1 = 0.06124 | 1000.09 | 1485.5
293.15 K, m1 = 0.07667 | 1000.53 | 1485.7
293.15 K, m1 = 0.098 | 1001.14 | 1486
293.15 K, m1 = 0.1095 | 1001.48 | 1486.1
298.15 K, m1 = 0.00233 | 997.123 | 1497.4
298.15 K, m1 = 0.00278 | 997.142 | 1497.4
298.15 K, m1 = 0.00301 | 997.148 | 1497.6
298.15 K, m1 = 0.00467 | 997.208 | 1497.8
298.15 K, m1 = 0.00501 | 997.221 | 1497.9
298.15 K, m1 = 0.00665 | 997.28 | 1498.2
298.15 K, m1 = 0.00889 | 997.362 | 1498.8
298.15 K, m1 = 0.00906 | 997.366 | 1498.8
298.15 K, m1 = 0.01229 | 997.472 | 1499.1
298.15 K, m1 = 0.01511 | 997.555 | 1499.1
298.15 K, m1 = 0.01804 | 997.629 | 1499.1
298.15 K, m1 = 0.02431 | 997.806 | 1499.1
298.15 K, m1 = 0.03042 | 997.989 | 1499.1
298.15 K, m1 = 0.04595 | 998.429 | 1499.1
298.15 K, m1 = 0.06124 | 998.861 | 1499
298.15 K, m1 = 0.07667 | 999.288 | 1499.1
298.15 K, m1 = 0.098 | 999.878 | 1499.2
298.15 K, m1 = 0.1095 | 1000.21 | 1499.2
303.15 K, m1 = 0.00233 | 995.721 | 1509.7
303.15 K, m1 = 0.00278 | 995.74 | 1509.7
303.15 K, m1 = 0.00301 | 995.746 | 1509.8
303.15 K, m1 = 0.00467 | 995.801 | 1510
303.15 K, m1 = 0.00501 | 995.814 | 1510
303.15 K, m1 = 0.00665 | 995.873 | 1510.4
303.15 K, m1 = 0.00889 | 995.95 | 1511
303.15 K, m1 = 0.00906 | 995.955 | 1511
303.15 K, m1 = 0.01229 | 996.058 | 1511.2
303.15 K, m1 = 0.01511 | 996.137 | 1511.2
303.15 K, m1 = 0.01804 | 996.207 | 1511.2
303.15 K, m1 = 0.02431 | 996.381 | 1511.1
303.15 K, m1 = 0.03042 | 996.556 | 1511
303.15 K, m1 = 0.04595 | 996.985 | 1510.9
303.15 K, m1 = 0.06124 | 997.402 | 1510.8
303.15 K, m1 = 0.07667 | 997.814 | 1510.7
303.15 K, m1 = 0.098 | 998.386 | 1510.5
303.15 K, m1 = 0.1095 | 998.705 | 1510.5
308.15 K, m1 = 0.00233 | 994.1 | 1520.3
308.15 K, m1 = 0.00278 | 994.121 | 1520.2
308.15 K, m1 = 0.00301 | 994.125 | 1520.4
308.15 K, m1 = 0.00467 | 994.18 | 1520.6
308.15 K, m1 = 0.00501 | 994.193 | 1520.6
308.15 K, m1 = 0.00665 | 994.246 | 1520.9
308.15 K, m1 = 0.00889 | 994.32 | 1521.4
308.15 K, m1 = 0.00906 | 994.325 | 1521.4
308.15 K, m1 = 0.01229 | 994.423 | 1521.7
308.15 K, m1 = 0.01511 | 994.502 | 1521.6
308.15 K, m1 = 0.01804 | 994.571 | 1521.6
308.15 K, m1 = 0.02431 | 994.739 | 1521.5
308.15 K, m1 = 0.03042 | 994.91 | 1521.4
308.15 K, m1 = 0.04595 | 995.323 | 1521.1
308.15 K, m1 = 0.06124 | 995.729 | 1520.8
308.15 K, m1 = 0.07667 | 996.129 | 1520.7
308.15 K, m1 = 0.098 | 996.685 | 1520.3
308.15 K, m1 = 0.1095 | 996.993 | 1520.1
313.15 K, m1 = 0.00233 | 992.28 | 1529.3
313.15 K, m1 = 0.00278 | 992.299 | 1529.3
313.15 K, m1 = 0.00301 | 992.305 | 1529.4
313.15 K, m1 = 0.00467 | 992.357 | 1529.6
313.15 K, m1 = 0.00501 | 992.368 | 1529.6
313.15 K, m1 = 0.00665 | 992.422 | 1529.8
313.15 K, m1 = 0.00889 | 992.489 | 1530.3
313.15 K, m1 = 0.00906 | 992.495 | 1530.3
313.15 K, m1 = 0.01229 | 992.591 | 1530.6
313.15 K, m1 = 0.01511 | 992.671 | 1530.5
313.15 K, m1 = 0.01804 | 992.736 | 1530.5
313.15 K, m1 = 0.02431 | 992.896 | 1530.3
313.15 K, m1 = 0.03042 | 993.064 | 1530.1
313.15 K, m1 = 0.04595 | 993.467 | 1529.7
313.15 K, m1 = 0.06124 | 993.86 | 1529.3
313.15 K, m1 = 0.07667 | 994.248 | 1529
313.15 K, m1 = 0.098 | 994.79 | 1528.5
313.15 K, m1 = 0.1095 | 995.087 | 1528.2
